# Where two headings read alike, the source gives them in different places.
# Experiments:
# [1] = Petrides et al., 2009, 2018, cited from earlier work
# [2] = Long-term plasma exposure after a single SC ANA dose (56-day follow-up), plasma LC-MS/MS; type: in vivo, Sprague-Dawley rats; settings: for AUC(0-inf) / AUC(0-t) / half-life / Cmax / Tmax: Sprague-Dawley, rat, male SD rats, n = 5, 56-day follow-up; for Cmax: read-out: Cmax; for Tmax: read-out: Tmax
# Method: To monitor the sustained release of SC ANA in the long term, 10 male SD rats were treated with a single dose of either 7.0 mg/kg (n = 5) or 35.0 mg/kg (n = 5). The rats were purchased from SPF Biotechnology Co. Ltd. (Beijing, China). Animals were acclimated to the test facility for at least three days, during which their general health was checked by veterinary staff or other authorized personnel. Animals were kept in polycarbonate cages containing absorbent corncob bedding, with a maintained temperature range of +20-25 °C and a 12-h light/dark cycle. Animals had access to food and drinking water ad libitum during acclimation and the experiment. At the end of the study, the rats were euthanized by exposure to an increasing concentration of CO2. […] The SC formulation was prepared by dissolving micronized ANA (5 μm particle size) in an oily triglyceride ester of saturated caprylic and capric fatty acids and glycerol (Miglyol® 810 N, IOI Oleo GmbH, Hamburg, Germany). […] To evaluate plasma concentration-time profiles, blood samples were collected from the jugular vein in EDTA tubes and stored at -70 °C until further analysis. […] In the second PK analysis in rats with a longer follow-up time, blood samples were collected at 0, 30 min, 1 […], and 56 d after dosage. SD rat plasma was analyzed for ANA, 3-OH-ANA, and RL603 concentrations by Pharmaron (Beijing, China). ANA, 3-hydroxy-anagrelide (CAS No. 733043-41-9, Cat. No. sc-206647, Santa Cruz Biotechnology, Inc., Dallas, TX), and RL603 (CAS No. 327602-34-6, Cat. No. sc-391661, Santa Cruz Biotechnology, Inc., Dallas, TX) were used as reference items in calibration standards and quality control (QC) samples. The HPLC and the MS/MS (LCMS-8060) instruments were both from SHIMADZU (Kyoto, Japan), and the column used was a Raptor Biphenyl column (2.7 μm, 50 × 2.1 mm, Restek, Bellefonte, PA). The desired serial concentrations of working solutions were achieved by diluting analyte stock solution with 50% acetonitrile in water. […] QC samples at 0.5, 1, 2, 50, and 800 ng/mL were prepared independently of those used for the calibration curves. These QC samples were prepared on the day of analysis in the same way as calibration standards. Carbamazepine (CAS No. 298-46-4, Sigma-Aldrich, St. Louis, MO) was used as an internal standard for all analytes. Altogether, 55 μL of standards, 55 μL of QC samples, and 55 μL of test samples (comprising 50 μL of plasma and 5 μL of blank solution) were added to 200 μL of acetonitrile containing an internal standard mixture to precipitate protein. The samples were then vortexed for 30 seconds. After centrifugation at 4000 × g (+4 °C) for 5 min, the supernatant was diluted threefold with water, and 2 μL of the diluted supernatant was injected into the LC/MS/MS system for quantitative analysis. The transitions were 256.00-198.90 m/z for anagrelide hydrochloride, 272.00-198.95 m/z for 3-hydroxy anagrelide, 216.00-198.95 m/z for RL603, and 237.20-194.10 m/z for carbamazepine. […] Plasma drug concentration-time profiles were drawn by the average plasma concentrations at specific time points using Microsoft Excel (Redmond, WA). […] Certara, Princeton, NJ) software. Averages of each variable were used when PK values were compared.
# [3] = Clinical observation during the rat PK experiments; type: in vivo, Sprague-Dawley rats; settings: single dose IV 0.5, PO 2.5, SC 1.0, 7.0 or 35.0 mg/kg, SD rats
# Method: To compare PK values of the three different administration routes, 11 male Sprague-Dawley® (SD) rats (6–8 weeks old) were administered a single dose of ANA either via IV injection (n = 3, 0.5 mg/kg), PO (n = 3, 2.5 mg/kg), or SC injection (n = 5, 1.0 mg/kg). To monitor the sustained release of SC ANA in the long term, 10 male SD rats were treated with a single dose of either 7.0 mg/kg (n = 5) or 35.0 mg/kg (n = 5). The rats were purchased from SPF Biotechnology Co. Ltd. (Beijing, China). Animals were acclimated to the test facility for at least three days, during which their general health was checked by veterinary staff or other authorized personnel. Animals were kept in polycarbonate cages containing absorbent corncob bedding, with a maintained temperature range of +20–25 °C and a 12-h light/dark cycle. Animals had access to food and drinking water ad libitum during acclimation and the experiment. At the end of the study, the rats were euthanized by exposure to an increasing concentration of CO2.
# [4] = analyte in plasma after single SC ANA dose 7 mg/kg
# [5] = analyte in plasma after single SC ANA dose 35 mg/kg
structure (smiles),measurement,setting,value
"O=C1CN2Cc3c(ccc(Cl)c3Cl)N=C2N1 [Anagrelide, imidazo‐[2,1‐b] quinazolin‐2[3H]‐one, 6,7‐dichloro‐1,5‐dihydro, monohydro‐chloride]",time of peak plasma concentration,"[1]; after PO drug administration, ref Gaver et al., 1981",approximately one hour
same,bioavailability,"[1]; taken orally, ref Spencer & Brogden, 1994",approximately 70%
same,AUC(0-inf),[2]; [4],1570 ± 388 ng·h/mL
same,AUC(0-t),[2]; [4],1460 ± 148 ng·h/mL
same,half-life,[2]; [4],12.2 days
same,Cmax,[2]; [4],6.78 ± 1.86 ng/mL
same,Tmax,[2]; [4],1 h
same,AUC(0-inf),[2]; [5],9480 ± 5270 ng·h/mL
same,AUC(0-t),[2]; [5],6350 ± 666 ng·h/mL
same,half-life,[2]; [5],14 days
same,Cmax,[2]; [5],21.8 ± 8.62 ng/mL
same,Tmax,[2]; [5],2.2 ± 1.64 h
same,time plasma concentrations were detected after a single administration,[2]; single SC administration in rats (7 or 35 mg/kg),up to 56 days
same,clinical symptoms,[3],No abnormal clinical symptoms were observed

# Reference: publication PMC11816618, “Pharmacokinetic profile and in vivo anticancer efficacy of anagrelide administered subcutaneously in rodents” (Drug Delivery, 2025)
